Target: T1, integrin αvβ3 (Homo sapiens, UniProt P05106+P06756)
T1 construct: from tissue; host or cells: human placenta
Assay: Integrin αvβ3 assay (competition between vitronectin and test substance for binding to solid phase-bound integrin αvβ3)
Conditions: competition with human vitronectin, integrin αvβ3 from human placenta, comparison in words only
Description: For the identification and assessment of integrin αvβ3 ligands, a test system was used which was based on competition between the natural integrin αvβ3 ligand vitronectin and the test substance for binding to solid phase-bound integrin αvβ3.
• Microtiter plates coated with 250 ng/ml of integrin αvβ3 in 0.05 M NaHCO3 pH 9.2; 0.1 ml/well; • saturation with 1% powdered milk/assay buffer; 0.3 ml/well; 0.5 h/RT • 3× washing with 0.05% Tween 20/assay buffer • test substance in 0.1% powdered milk/assay buffer, 50 μl/well 0 μg/ml or […] of human vitronectin (Boehringer Ingelheim T007) in 0.1% powdered milk/assay buffer, 50 μl/well; 1 h/RT • 3× washing with 0.05% Tween 20/assay buffer • 1 μg/ml of anti human vitronectin antibody coupled to peroxidase (Kordia SAVN-APHRP) in 0.1% powdered milk/assay buffer; 0.1 ml/well; 1 h/RT • 3× washing with 0.05% Tween 20/assay buffer • 0.1 ml/well of peroxidase substrate • stop reaction with 0.1 ml/well of 2 M H2SO4 • measurement of the absorption at 450 nm • Integrin αvβ3: Human placenta is solubilized with Nonidet and integrin αvβ3 affinity-purified on a GRGDSPK matrix (elution with EDTA). […]

`O=C(O)CC1CCN(CC(=O)NCc2ccc(Nc3nc4ccccc4[nH]3)cc2)C(=O)c2ccccc21` (stereo not shown) [Example II, [2-(2-{[4-(1H-Benzimidazol-2-ylamino)benzyl]amino}-2-oxoethyl)-1-oxo-2,3,4,5-tetrahydro-1H-2-benzazepin-5-yl]acetic acid] was tested. Which “IC50 values (concentration of the ligand at which 50% of the ligand is displaced)” value did it give?
The value was “best result”.
